{"source": "paper PMC10023972", "about": "“Saturated fatty acid– and/or monounsaturated fatty acid–containing phosphatidic acids selectively interact with heat shock protein 27” (The Journal of Biological Chemistry, 2023)", "target": "T1, HSP27 (heat shock protein 27, HSPβ1; 6×His-HSP27) (Homo sapiens, UniProt P04792)", "T1 construct": "gene HSPB1; full length (205 aa), N-terminal 6×His tag (pET-28a), E. coli Rosetta 2 (DE3), Ni-NTA, ~30 kDa band; large oligomer (more than octamer)", "T1 sequence (P04792 whole entry)": "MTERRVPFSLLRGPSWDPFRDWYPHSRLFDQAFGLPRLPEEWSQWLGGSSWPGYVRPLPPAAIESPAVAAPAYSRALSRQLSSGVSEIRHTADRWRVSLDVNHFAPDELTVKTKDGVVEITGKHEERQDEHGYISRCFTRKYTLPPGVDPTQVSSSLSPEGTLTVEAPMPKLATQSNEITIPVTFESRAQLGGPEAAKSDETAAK", "experiment": "liposome co-sedimentation (ultracentrifugation), Western blot densitometry", "type": "binding", "conditions": "unreliable; extrapolated beyond the 0-25 μM range; PS in liposomes (PS/egg PC/cholesterol 20/50/30 mol%), 0.1 μM protein, pH 7.4, 4 °C", "data": [{"smiles": "CCCCCCCCCCCCCCCC(=O)OC[C@H](COP(=O)(O)OC[C@H](N)C(=O)O)OC(=O)CCCCCCCCCCCCCCC", "note": "[16:0/16:0-PS, 1,2-dipalmitoyl-sn-glycero-3-phosphoserine]", "values": [{"measurement": "extrapolated Kd", "value": "~ 100 μM"}]}]}
